Assay results taken from ChEMBL document CHEMBL5505987 (Eur J Med Chem, 2024).
pIC50: −log10 of the molar value. The source made the active and inactive calls. The rule behind the calls is not given here.

Assays:
MDA-MB-231 [1] = test: Induction of apoptosis in human MDA-MB-231 cells assessed as increase in apoptotic rate at 4 uM incubated for 24 hrs by Annexin V-FITC/PI double staining by flow cytometry; assay type: functional
MDA-MB-231 [2] = test: Induction of cell cycle arrest in human MDA-MB-231 cells assessed as reduction in p-Rb expression at 1 to 4 uM measured after 24 hrs by immunoblotting assay; assay type: functional, cell-based; conditions: dose 1-4 µM
MDA-MB-231 [3] = test: Induction of apoptosis in human MDA-MB-231 cells assessed as increase in cleaved caspase 9 expression at 1 to 4 uM incubated for 24 hrs by Western blotting analysis; assay type: functional, cell-based; conditions: dose 1-4 µM
4T1 [4] = test: Anti-invasive activity in mouse 4T1 cells assessed as reduction in cell invasion incubated for 24 hrs by Transwell assay; assay type: functional, cell-based; conditions: dose 3-6 µM
MDA-MB-231 [5] = test: Induction of cell cycle arrest in human MDA-MB-231 cells assessed as accumulation of cells at G0/G1 phase at 1 uM measured after 24 hrs by PI staining by flow cytometry; assay type: functional
HeLa = test: Cytotoxicity against human HeLa cells assessed as cell viability by MTT assay; assay type: functional, cell-based
4T1 [6] = test: Induction of DNA damage in mouse 4T1 cells assessed as increase in gamma-H2AX focal expression at 2 to 4 uM by immunofluorescence staining assay; assay type: functional, cell-based; conditions: dose 2-4 µM
MDA-MB-231 [7] = test: Anti-tumor activity against human MDA-MB-231 cells assessed as change in TGF-beta1/Smad signaling pathway by measuring increase in p-Smad3 level after 24 hrs incubation by Western blot analysis; assay type: functional, cell-based; conditions: dose 1-4 µM
MDA-MB-231 [8] = test: Induction of cell cycle arrest in human MDA-MB-231 cells assessed as reduction in cyclin D1 expression at 1 to 4 uM measured after 24 hrs by immunoblotting assay; assay type: functional, cell-based; conditions: dose 1-4 µM
4T1 [9] = test: Antimigratory activity against mouse 4T1 cells assessed as decrease in migration of tumor cells into scratching region at 8 to 10 uM incubated for 12 to 24 hrs by Wound healing assay; assay type: functional, cell-based; conditions: dose 8-10 µM, time 12-24 hrs
MDA-MB-231 [10] = test: Antimigratory activity against human MDA-MB-231 cells assessed as decrease in migration of tumor cells into scratching region at 8 to 10 uM incubated for 12 to 24 hrs by Wound healing assay; assay type: functional, cell-based; conditions: dose 8-10 µM, time 12-24 hrs
4T1 [11] = test: Inhibition of colony formation in mouse 4T1 cells assessed as reduction in colony formation treated for 10 days medium refreshed every two days by crustal violet based assay; assay type: functional, cell-based; conditions: time 10.0 day
MDA-MB-231 [12] = test: Induction of apoptosis in human MDA-MB-231 cells assessed as increase in cleaved caspase 3 expression at 1 to 4 uM incubated for 24 hrs by Western blotting analysis; assay type: functional, cell-based; conditions: dose 1-4 µM
MDA-MB-231 [13] = test: Induction of apoptosis in human MDA-MB-231 cells assessed as increase in apoptotic rate incubated for 24 hrs in presence of SB-431542 TGF-beta signaling inhibitor by Annexin V-FITC/PI double staining by flow cytometry; assay type: functional, cell-based
MDA-MB-231 [14] = test: Anti-metastatic activity in human MDA-MB-231 cells assessed as decrease in vimentin protein level at 1 to 4 uM by Western blotting analysis; assay type: functional, cell-based; conditions: dose 1-4 µM
4T1 [15] = test: Induction of apoptosis in mouse 4T1 cells assessed as increase in apoptotic rate at 6 uM incubated for 24 hrs by Annexin V-FITC/PI double staining by flow cytometry; assay type: functional
MDA-MB-231 [16] = test: Anti-tumor activity against human MDA-MB-231 cells assessed as change in TGF-beta1/Smad signaling pathway by measuring fluorescence intensity of p-Smad3 level at 2 to 4 uM after 24 hrs incubation by immunofluorescence staining assay; assay type: functional, cell-based; conditions: dose 2-4 µM
MCF7 = test: Cytotoxicity against human MCF7 cells assessed as cell viability by MTT assay; assay type: functional, cell-based
MDA-MB-231 [17] = test: Reduction of ATP level in human MDA-MB-231 cells incubated for 24 hrs by colorimetric based ATP Content Assay Kit; assay type: functional, cell-based; conditions: dose 1-4 µM
MDA-MB-231 [18] = test: Induction of apoptosis in human MDA-MB-231 cells assessed as increase in apoptotic rate at 1 uM incubated for 24 hrs by Annexin V-FITC/PI double staining by flow cytometry; assay type: functional
MDA-MB-231 [19] = test: Anti-proliferative activity against human MDA-MB-231 cells assessed as cell viability measured after 24 hrs by MTT assay; assay type: functional, cell-based; conditions: dose 1-8 µM
4T1 [20] = test: Induction of cell cycle arrest in mouse 4T1 cells assessed as accumulation of cells at G0/G1 phase measured after 24 hrs in presence of SB-431542 TGF-beta signaling inhibitor by PI staining by flow cytometry; assay type: functional, cell-based
MDA-MB-231 [21] = test: Anti-tumor activity against human MDA-MB-231 cells assessed as change in TGF-beta1/Smad signaling pathway by measuring increase in TGF-beta1 level after 24 hrs incubation by Western blot analysis; assay type: functional, cell-based; conditions: dose 1-4 µM
MDA-MB-231 [22] = test: Induction of cell cycle arrest in human MDA-MB-231 cells assessed as reduction in cyclin E1 expression at 1 to 4 uM measured after 24 hrs by immunoblotting assay; assay type: functional, cell-based; conditions: dose 1-4 µM
MDA-MB-231 [23] = test: Induction of DNA damage in human MDA-MB-231 cells assessed as increase in gamma-H2AX focal expression at 2 to 4 uM by immunofluorescence staining assay; assay type: functional, cell-based; conditions: dose 2-4 µM
MDA-MB-231 [24] = test: Anti-tumor activity against human MDA-MB-231 cells assessed as change in TGF-beta1/Smad signaling pathway by measuring fluorescence intensity of p-Smad2 level at 2 to 4 uM after 24 hrs incubation by immunofluorescence staining assay; assay type: functional, cell-based; conditions: dose 2-4 µM
MDA-MB-231 [25] = test: Induction of apoptosis in human MDA-MB-231 cells assessed as increase in cleaved PARP expression at 1 to 4 uM incubated for 24 hrs by Western blotting analysis; assay type: functional, cell-based; conditions: dose 1-4 µM
4T1 [26] = test: Induction of mitochondrial membrane potential loss in mouse 4T1 cells assessed as increase in fluorescence intensity by JC-1 monomer assay; assay type: functional, cell-based; conditions: dose 2-4 µM
4T1 [27] = test: Induction of mitochondrial membrane potential loss in mouse 4T1 cells assessed as decrease in fluorescence intensity by JC-1 aggregate assay; assay type: functional, cell-based; conditions: dose 2-4 µM
MDA-MB-231 [28] = test: Induction of cell cycle arrest in human MDA-MB-231 cells assessed as accumulation of cells at G0/G1 phase at 4 uM measured after 24 hrs by PI staining by flow cytometry; assay type: functional

SMILES: O=C1C[C@@H](c2ccccc2)Oc2cc(O)c([C@H](/C=C/C[C@@H](O)CCc3ccccc3)c3ccccc3)c(O)c21
- Activity (MDA-MB-231 [1]): 46.4%
- Activity (MDA-MB-231 [2]): Active
- Activity (MDA-MB-231 [3]): Active
- Activity (4T1 [4]): Dose-Dependent Effect
- Activity (MDA-MB-231 [5]): 49.59%
- pIC50 (HeLa): 5.66
- Activity (4T1 [6]): Active
- Activity (MDA-MB-231 [7]): Dose-Dependent Effect
- Activity (MDA-MB-231 [8]): Active
- Activity (4T1 [9]): Active
- Activity (MDA-MB-231 [10]): Active
- inhibition (4T1 [11]): Dose-Dependent Effect
- Activity (MDA-MB-231 [12]): Active
- Activity (MDA-MB-231 [13]): inactive
- Activity (MDA-MB-231 [14]): Active
- Activity (4T1 [15]): 48.24%
- Activity (MDA-MB-231 [16]): Active
- pIC50 (MCF7): 5.06
- inhibition (MDA-MB-231 [17]): Active
- Activity (MDA-MB-231 [18]): 6.84%
- Activity (MDA-MB-231 [19]): Dose-Dependent Effect
- Activity (4T1 [20]): inactive
- Activity (MDA-MB-231 [21]): Dose-Dependent Effect
- Activity (MDA-MB-231 [22]): Active
- Activity (MDA-MB-231 [23]): Active
- Activity (MDA-MB-231 [24]): Active
- Activity (MDA-MB-231 [25]): Active
- Activity (4T1 [26]): Dose-Dependent Effect
- Activity (4T1 [27]): Dose-Dependent Effect
- Activity (MDA-MB-231 [28]): 71.78%
